One experiment deals with apricot variety. The settings on record: cited from earlier work.
In experiment [1] the test system is UFO-4 nectarines. The experiment in a line: Dose rate trial in Spain, fruit numbers. The class given is in vivo, nectarine. Here is the method: (§1) Two trials were carried out in Spain: a timing trial and a dose rate trial. The dose rate trial was done at UFO-4 nectarines. The use of GA7 (>95% pure with respect to the presence of GA4) was applied in amounts between 0.25 and 2 L/hL at 2 months of full bloom on UFO-4 peach.

The subject of experiment [2] is peach. The experiment in a line: Ex 6: 2011 peach return bloom (blossom counts proximal/distal). The class given is in vivo. The source says:
Shoots were divided in half and blossoms were counted according to proximal, the half closest to the tree trunk, and distal, the half closest to the shoot tip.

Experiment [3] has as its system UFO-4 nectarines. The experiment in a line: Dose rate trial in Spain, fruit numbers. The experiment is classed as in vivo, nectarine. The note with it: 10 g/hL (Falgro tablets), comparative experiment B.
For experiment [4], the system named is peach. The experiment in a line: Initial evaluation trial in Piemonte, GA7 on peach fruitlets. The experiment is classed as in vivo. The note with it: 750 ml/hl on 10 mm fruitlets of peach. How it is done:
An initial test was carried out as an evaluation trial in Piemonte with GA7 applied at 750 ml/hl on 10 mm fruitlets of peach.

Experiment [5] relates to peach and nectarine. The experiment in a line: 2010-11 thinning trials in Spain (Catalonia, Masso). The experiment is classed as in vivo. Here is the method: (§2) Trials were carried out in Italy and Spain with GA7. The trees were treated with GA7 about 3 months after full bloom in order to reduce flowering the year thereafter.
In Spain, trials were carried out on peach and nectarine with GA7 (>95% pure relative to GA4). The first assessments were done at harvest in 2010. […] The main assessments took place in spring 2011 (i.e. the next year): The reduction of the number of buds per cm was in the order of 35% in the trials carried out in the Catalonia region. In the trials in Masso also, clear reductions of 41-78% were found depending on the variety and the dose. In the meantime, fruit size was increased. Time necessary for hand thinning was recorded in the trials done in Catalonia. The treatment with GA7 allowed a reduction of about 30% of the hand thinning time.

Experiment [6] concerns peach and nectarine. The experiment in a line: 2010-11 thinning trial in Italy. The experiment is classed as in vivo. The settings on record: 1 L/100 L ca. 3 months after full bloom, GA7 95% pure relative to GA4. How it is done: as §2
In the next experiment the test system is nectarine. The experiment in a line: 2011-12 trial in nectarine, return bloom (number of flowers on distal and basal part of branches). The experiment is classed as in vivo. Here is the method:
as §2
(§3) In 2011, new trials were started: 4 trials in peach and nectarines.

The subject of a further experiment is peach and nectarines. The experiment in a line: Other three 2011-12 trials, number of flowers per branch. The experiment is classed as in vivo. The note with it: depending on the trial and the rate. How it is done: as §2, §3
Another experiment deals with Merryl O Henry peach. The experiment in a line: Timing trial in Spain, fruit numbers. The experiment is classed as in vivo. Here is the method:
as §1
Further trial was executed on Merryl O Henry peach. The application of GA7 was varied over time, and in one programme GA7 was applied in two doses, 2 weeks apart.

Experiment [7] concerns peach. The experiment in a line: Ex 7: 2012 peach return bloom. The class given is in vivo. The note with it: applied at 50 ppm. The source says:
Once again, shoots were divided in half and blossoms were counted according to proximal and distal halves.

For experiment [8], the system named is peach. The experiment in a line: Ex 8: 2011 peach trial (flowers per branch, fruit size and quality). The class given is in vivo. The text has this: This study consisted of 3 treatments applied on April 25, May 10, and May 26, 2011 (which is 45, 60 and 75 days after full bloom): • 1. Untreated check • 2. FAL 900 at a rate of 25 ppm ai (C) which is 2.5 g per 100 L, which is 0.25 L formulation per 100 L. • 3. FAL 900 at a rate of 50 ppm ai (C) • 4. FAL 900 at a rate of 10 ppm ai (3 treatments with 2 weeks interval) 2011-12 Observations: Evaluations consisted of assessing for firmness, soluble solids, and titratable acidity, and weight of 20 fruit per plot on end of July early August. Shoot measurements were recorded on end of February in […] from ten shoots per plot. The number of flowers per branch were counted from two halves (proximal and distal) of ten branches per plot on end of February 2012.

Experiment [9] has as its system stone fruit. The experiment in a line: Summary of the thinning tests with GA7. The settings on record: compared with fully hand-thinned fruit. The experiment is classed as in vivo.
Experiment [10] relates to stone fruit. The experiment in a line: Reliability of fruit thinning by spraying on fruit trees. The experiment is classed as in vivo. The settings on record: sprayed on fruit trees. The source says:
GA7 may be used in admixture with GA4, but the relative amounts of GA7 to GA4 are 70% GA7 or more and 30 GA4 or less. Preferably, the GA7 contains less than 10 wt % of GA4 relative to the GA7, more preferably less than 5 wt %. […] In some years, some thinning is observed, but this effect is not consistently achieved.

The mark [11] stands for this setting: 10 g/hL (Falgro tablets), comparative experiment B.
Where [12] appears, read: 0.25 L/hL at 2 months of full bloom.
Where [13] appears, read: 0.5 L/hL at 2 months of full bloom.
Where [14] appears, read: 1.0 L/hL at 2 months of full bloom.
Where [15] appears, read: 2.0 L/hL at 2 months of full bloom.
Where [16] appears, read: 0.5 L/hL, sprays 1.5 and 2 month after full bloom (two doses).
Where [17] appears, read: 1 L/hL, spray 1.5 month after full bloom.
Setting [18] is: 1 L/hL, spray 2 month after full bloom.
Where [19] appears, read: 1 L/hL, spray 2.5 month after full bloom.

Entries after “also recorded” stand apart in the source; their conditions may differ.

Take `C=C1C[C@]23C[C@H]1CC[C@H]2[C@@]12CC[C@H](O)[C@@](C)(C(=O)O1)[C@H]2[C@@H]3C(=O)O` [GA4, reference compound]: the “effectiveness compared among GA3, GA4 and GA7” value in the experiment on apricot variety (applied in May or June, source and purity unclear) is “more effective than either GA3 or GA7”.
`C=C1C[C@]23C[C@@]1(O)CC[C@H]2[C@@]12C=C[C@H](O)[C@@](C)(C(=O)O1)[C@H]2[C@@H]3C(=O)O` [GA3, gibberellic acid]: in the experiment on UFO-4 nectarines [1] (setting [11]), the “Number of fruit/m of short fruiting shoots (<20 cm)” value (“Number of fruit/m … (<20 cm)” below) is 29 and the “Total number of fruit per tree” value was 675. The “blossom counts in comparison to the UTC” value in the experiment on peach [2] (both rates, throughout the trial) is recorded as “consistently lower blossom counts”. Also, the “rate response of blossom counts” value in the experiment on peach [2] (two evaluation dates) is given as “a rate response was observed for the first evaluation date, but not the second”. Moreover, in the experiment with UFO-4 nectarines [3], the “Number of fruit/m of long fruiting shoots (>20 cm)” value (from here on “Number of fruit/m … (>20 cm)”) is 18 and the “Number of fruit/m of total fruiting shoots” value was determined as 19.
For the compound `C=C1C[C@]23C[C@H]1CC[C@H]2[C@@]12C=C[C@H](O)[C@@](C)(C(=O)O1)[C@H]2[C@@H]3C(=O)O` [GA7, gibberellin 7], the “control of flowering in the following year” value in the experiment on peach [4] is listed as “high control of flowering”. In addition, the budding result in the experiment on peach [4] (especially on young lateral branches) is recorded as “better budding”. For the same compound, the fruit size result with peach and nectarine [5] (Masso trials, 2011) is listed as “increased”. In addition, in the experiment on peach and nectarine [5] (assessments at harvest in 2010, GA7 >95% pure relative to GA4), the “impact of the treatments on yield and fruit quality” value is reported as “did not show any impact”. Also, the “reductions (trials in Masso)” value in the experiment on peach and nectarine [5] (spring 2011, Masso, depending on the variety and the dose) is 41-78%. For the same compound, the “reduction of the number of buds per cm” value in the experiment on peach and nectarine [5] (spring 2011, trials in the Catalonia region) was around 35%. Besides, in the experiment with peach and nectarine [5] (trials done in Catalonia), the “reduction of the hand thinning time” value was “about 30%”. Further, the “reduction in the number of fruit/meter of branch” value with peach and nectarine [6] (variety Laura) was determined as 1.5%; in the experiment on peach and nectarine [6] (variety Sinphony) it was 32.9%. Besides, the No of flowers came to 8.5 in the experiment on nectarine (basal part, 0.5 L/hL); 5.4 in the experiment with nectarine (basal part, 1 L/hL); 4.7 in the experiment with nectarine (distal part, 0.5 L/hL); 3.7 in the experiment on nectarine (distal part, 1 L/hL). The “No of flowers, change vs untreated” value is given as −37% in the experiment with nectarine (basal part, 0.5 L/hL); −60% in the experiment on nectarine (basal part, 1 L/hL); −58% in the experiment with nectarine (distal part, 0.5 L/hL); −67% in the experiment on nectarine (distal part, 1 L/hL). Also, the return bloom result in the experiment with nectarine (distal and proximal part of the branches, rate effect between 0.5 and 1 L/100 L) is “return bloom is reduced”. In addition, in the experiment on peach and nectarines, the “reduction in the number of flowers per branch in comparison to the untreated” value is reported as −17 to −50%. In addition, the “Number of fruit/m … (>20 cm)” value was 20 in the experiment on UFO-4 nectarines [1] (setting [12]); 23 in the experiment on UFO-4 nectarines [1] (setting [13]); 17 in the experiment with UFO-4 nectarines [1] (setting [14]); 13 in the experiment with UFO-4 nectarines [1] (setting [15]); 4.7 in the experiment on Merryl O Henry peach (setting [16]); 8.6 in the experiment with Merryl O Henry peach (setting [17]). Besides, the “Number of fruit/m … (>20 cm)” value with Merryl O Henry peach (setting [18]) was 5.1; with Merryl O Henry peach (setting [19]) it was 3.7. The “Number of fruit/m … (<20 cm)” value in the experiment on UFO-4 nectarines [1] (setting [12]) stood at 27; with UFO-4 nectarines [1] (setting [13]), 28; with UFO-4 nectarines [1] (setting [14]), 12; in the experiment with UFO-4 nectarines [1] (setting [15]), 7; in the experiment with Merryl O Henry peach (setting [16]), 5.8; with Merryl O Henry peach (setting [17]), 5.9. The results for the “Number of fruit/m … (<20 cm)” value in the experiment with Merryl O Henry peach (setting [18]) and in the experiment with Merryl O Henry peach (setting [19]) were 3.6 and 2.8, respectively. In addition, the “Number of fruit/m of total fruiting shoots” value in the experiment on UFO-4 nectarines [1] (setting [12]) is reported as 21; in the experiment on UFO-4 nectarines [1] (setting [13]), 24; with UFO-4 nectarines [1] (setting [14]) it was 16; in the experiment on UFO-4 nectarines [1] (setting [15]) it was 12; in the experiment with Merryl O Henry peach (setting [16]), 5.6; with Merryl O Henry peach (setting [17]), 6.5. For the same compound, the “Number of fruit/m of total fruiting shoots” value in the experiment on Merryl O Henry peach (setting [18]) is given as 3.8; with Merryl O Henry peach (setting [19]), 3.0. Further, the “Total number of fruit per tree” value in the experiment on UFO-4 nectarines [1] (setting [12]) is 704; in the experiment with UFO-4 nectarines [1] (setting [13]), 729; in the experiment on UFO-4 nectarines [1] (setting [14]), 491; in the experiment on UFO-4 nectarines [1] (setting [15]), 375; with Merryl O Henry peach (setting [16]) it was 115; in the experiment on Merryl O Henry peach (setting [17]) it was 149. Also, the “Total number of fruit per tree” value with Merryl O Henry peach (setting [18]) is 77; with Merryl O Henry peach (setting [19]), 69. Further, the “thinning effectiveness of GA7 versus GA3” value with UFO-4 nectarines [1] (at comparable amounts of GA7 and GA3 (Falgro tablets)) is given as “more effective”. Further, the “effectiveness for thinning stone fruit” value in the experiment on Merryl O Henry peach (applied at varying times) is given as “effective for thinning stone fruit”. For the same compound, the “2012 return bloom, bloom counts totaled across the entire fruiting branch (proximal+distal)” value in the experiment on peach [7] is given as “significant reduction”. The “number of flowers on the lower or proximal half of the branch (A)” value in the experiment with peach [8] (50 ppm ai (C)) is recorded as “significantly lowest”. In addition, the “size of peaches collected” value in the experiment with peach [8] (50 ppm ai, tree also producing the largest peaches in 2011) was “largest peaches”. Besides, the “quality of the peaches” value in the experiment on peach [8] (firmness, soluble solids, titratable acidity, weight) is “not influenced”. The “quality of the resultant fruit” value in the experiment with stone fruit [9] is “same quality as fully hand-thinned fruit”. Moreover, the “reliability of fruit thinning results” value with stone fruit [10] is “reliable thinning results”. In the experiment on apricot variety (6 experiments), the “effect on flowering vs. untreated” value is “only in 1 out of 6 experiments a non significant reducing effect on flowering; also recorded: in 4 experiments out of 6 shows the opposite effect of increased flowering”.

The values are drawn from US10485237B2, “Use of a chemical agent for thinning of stone fruit” (FINE AGROCHEMICALS LIMITED, priority 2014, dated 2019).
